Results taken from the NIST ThermoML archive (doi:10.1021/je060271a).
Numbers after ± are expanded uncertainties.

Conditions: Liquid, Vibrating tube method

Question: Which results are given for `CCCCCC(=O)OCC(COC(=O)CCCCC)(COC(=O)CCCCC)COC(=O)CCCCC` [pentaerythritol tetrahexanoate]?
Answer: mass density (303.17 K, 1567.2 kPa): 989.3 ± 1.2 kg/m3; mass density (303.17 K, 1583.5 kPa): 989.4 ± 1.2 kg/m3; mass density (303.17 K, 1597.3 kPa): 989.4 ± 1.2 kg/m3; mass density (303.17 K, 1611.3 kPa): 989.4 ± 1.2 kg/m3; mass density (303.17 K, 1628.3 kPa): 989.5 ± 1.2 kg/m3; mass density (303.17 K, 5535.7 kPa): 992 ± 1.2 kg/m3; mass density (303.17 K, 5553.1 kPa): 991.9 ± 1.2 kg/m3; mass density (303.17 K, 5573.9 kPa): 992 ± 1.2 kg/m3; mass density (303.17 K, 17353 kPa): 999.2 ± 1.2 kg/m3; mass density (303.17 K, 32996 kPa): 1008 ± 1.2 kg/m3; mass density (303.17 K, 33019 kPa): 1007.9 ± 1.2 kg/m3; mass density (303.17 K, 33039 kPa): 1007.9 ± 1.2 kg/m3; mass density (303.17 K, 33058 kPa): 1008 ± 1.2 kg/m3; mass density (303.17 K, 33082 kPa): 1008.1 ± 1.2 kg/m3; mass density (303.17 K, 33102 kPa): 1007.9 ± 1.2 kg/m3; mass density (303.17 K, 33125 kPa): 1008 ± 1.2 kg/m3; mass density (303.17 K, 33145 kPa): 1008 ± 1.2 kg/m3; mass density (303.17 K, 33165 kPa): 1007.9 ± 1.2 kg/m3; mass density (323.14 K, 384.5 kPa): 973 ± 1.2 kg/m3; mass density (323.14 K, 386.4 kPa): 972.9 ± 1.2 kg/m3; mass density (323.14 K, 388.7 kPa): 972.8 ± 1.2 kg/m3; mass density (323.14 K, 391.1 kPa): 972.8 ± 1.2 kg/m3; mass density (323.14 K, 393.7 kPa): 972.9 ± 1.2 kg/m3; mass density (323.14 K, 396.7 kPa): 972.9 ± 1.2 kg/m3; mass density (323.14 K, 398.7 kPa): 973 ± 1.2 kg/m3; mass density (323.14 K, 401.3 kPa): 973 ± 1.2 kg/m3; mass density (323.14 K, 403.6 kPa): 972.9 ± 1.2 kg/m3; mass density (323.14 K, 406.6 kPa): 972.9 ± 1.2 kg/m3; mass density (323.14 K, 408.8 kPa): 972.9 ± 1.2 kg/m3; mass density (323.14 K, 411.4 kPa): 973 ± 1.2 kg/m3; mass density (323.14 K, 414.9 kPa): 972.9 ± 1.2 kg/m3; mass density (323.14 K, 417.5 kPa): 972.8 ± 1.2 kg/m3; mass density (323.14 K, 420.5 kPa): 972.9 ± 1.2 kg/m3; mass density (323.14 K, 423.2 kPa): 973 ± 1.2 kg/m3; mass density (323.14 K, 426 kPa): 972.9 ± 1.2 kg/m3; mass density (323.14 K, 429.2 kPa): 972.9 ± 1.2 kg/m3; mass density (323.14 K, 431.6 kPa): 972.9 ± 1.2 kg/m3; mass density (323.14 K, 434.7 kPa): 973.1 ± 1.2 kg/m3; mass density (323.14 K, 438 kPa): 972.9 ± 1.2 kg/m3; mass density (323.14 K, 440.8 kPa): 972.9 ± 1.2 kg/m3; mass density (323.14 K, 477.3 kPa): 972.9 ± 1.2 kg/m3; mass density (323.14 K, 481.1 kPa): 973 ± 1.2 kg/m3; mass density (323.14 K, 484.4 kPa): 972.9 ± 1.2 kg/m3; mass density (323.14 K, 488.9 kPa): 972.9 ± 1.2 kg/m3; mass density (323.14 K, 492.6 kPa): 973 ± 1.2 kg/m3; mass density (323.14 K, 495.7 kPa): 973 ± 1.2 kg/m3; mass density (323.14 K, 499.5 kPa): 973 ± 1.2 kg/m3; mass density (323.14 K, 503.9 kPa): 973 ± 1.2 kg/m3; mass density (323.14 K, 507.5 kPa): 973.1 ± 1.2 kg/m3; mass density (323.14 K, 512.4 kPa): 973.1 ± 1.2 kg/m3; mass density (323.14 K, 516.2 kPa): 973 ± 1.2 kg/m3; mass density (323.14 K, 645.8 kPa): 973.2 ± 1.2 kg/m3; mass density (323.14 K, 648.1 kPa): 973.1 ± 1.2 kg/m3; mass density (323.14 K, 650 kPa): 973 ± 1.2 kg/m3; mass density (323.14 K, 652.6 kPa): 973.1 ± 1.2 kg/m3; mass density (323.14 K, 654.5 kPa): 973.1 ± 1.2 kg/m3; mass density (323.14 K, 657.1 kPa): 972.9 ± 1.2 kg/m3; mass density (323.14 K, 686.8 kPa): 973.3 ± 1.2 kg/m3; mass density (323.14 K, 689.8 kPa): 973 ± 1.2 kg/m3; mass density (323.14 K, 692.2 kPa): 973.1 ± 1.2 kg/m3; mass density (323.14 K, 694.8 kPa): 973.3 ± 1.2 kg/m3; mass density (323.14 K, 697.1 kPa): 973.2 ± 1.2 kg/m3; mass density (323.14 K, 763.3 kPa): 973.2 ± 1.2 kg/m3; mass density (323.14 K, 801.5 kPa): 973.1 ± 1.2 kg/m3; mass density (323.14 K, 803.8 kPa): 973.2 ± 1.2 kg/m3; mass density (323.14 K, 807.1 kPa): 973.2 ± 1.2 kg/m3; mass density (323.14 K, 809.5 kPa): 973.2 ± 1.2 kg/m3; mass density (323.14 K, 812.1 kPa): 973.3 ± 1.2 kg/m3; mass density (323.14 K, 858.7 kPa): 973.2 ± 1.2 kg/m3; mass density (323.14 K, 862.3 kPa): 973.3 ± 1.2 kg/m3; mass density (323.14 K, 865.1 kPa): 973.2 ± 1.2 kg/m3; mass density (323.14 K, 867.7 kPa): 973.2 ± 1.2 kg/m3
